From patent publication US11951100B2, “Formulations of RBP4 inhibitors and methods of use” (Belite Bio, LLC, priority 2019, dated 2024)
≈ marks a conversion by molar mass, not a printed value. Where “and” joins values, the source holds several entries; their conditions need not be identical. Identical values can stand only once.

Key:
[1] = test system: Abcd4/rdh8 double knockout mice; assay: Abcd4/rdh8 double knockout mouse model of macular degeneration; assay type: in vivo
Excerpt: FIG. 2 is a graph of bisretinoid A2E (pmol in the eye) and RBP4 (serum) levels for ABCA4−/−RDH8−/− mice either untreated, treated with vehicle, or treated with Compound 1.
FIG. 3 is a graph of outer nuclear layer (ONL) thickness (μm) as a function of distance (μm) from the optic nerve (ONH). ONL is the cell layer consisting of photoreceptor cell bodies (rods and cones). Dry AMD or STGD is often associated with thinning of the ONL and the loss of photoreceptor cells, indicating macular degeneration.
Abcd4/rdh8 double knockout mice were either untreated or treated with Compound 1. Wild type C57BL/6J mice were also used as a normal control. […] (FIG. 2). Diseases such as dry AMD or Stargardt are associated with thinning of the outer nuclear layer (ONL) of the eye and the loss of photoreceptor cells, indicating macular degeneration.

[2] = Melt-quench modulated DSC of Compound 1; assay type: physicochemical
Method: A sample of Compound 1 was analyzed by Modulated Differential Scanning Calorimetry using a TA Discovery DSC2500 with RCS90 chiller according to standard instrument procedures provided by manufacturer. Parameters used for the analysis are shown below in Table 4. Two replicates of the experiment were run with reproducible results. The resulting thermogram, shown in FIG. 10C, indicates a glass transition temperature (Tg) of about 93° C., a crystallization temperature (Tc) of about 136° C., and a Tm/Tg ratio of 1.37. The Tm/Tg ratio of 1.37 is indicative of moderate physical stability. Without being bound by theory, the Te observed quickly after Compound 1 entering a rubbery state was indicative of a propensity to crystallize. [table]

[3] = MDSC of spray dried solid dispersions; assay type: physicochemical; details: n = 3
Method: Samples of the solid dispersions containing Compound 1 were analyzed by Differential Scanning Calorimetry using a TA Discovery DSC2500 with RCS90 chiller according to standard instrument procedures provided by manufacturer. Parameters used for the analysis are shown below in Table 9. Three replicates of the experiment were run for each dispersion.

[4] = Estimated solubility by solvent aliquot addition, visual inspection; assay type: physicochemical; details: thermodynamic from solid
Method: Solubilities of Compound 1 in a few solvents were estimated. The experiments were carried out by adding the test solvent in aliquots to weighed portions of solid. Whether dissolution had occurred was judged by visual inspection after addition of each solvent aliquot. Solubility numbers were calculated by dividing the total amount of solvent used to dissolve the sample by the weight of the sample. The actual solubilities may be greater than the numbers calculated because of the use of solvent aliquots that were too large or because of slow dissolution rates. […] The solubility number is expressed as “greater than or equal to” if dissolution occurred on addition of the first solvent aliquot.

[5] = Equilibrium solubility by HPLC, Form C, ambient temperature; assay type: physicochemical; details: for solubility: thermodynamic from solid
Method: […] (as a part of feasibility assessment of liquid dosage form in formulation development and dissolution method development), a number of […] […] The equilibrated suspensions were isolated by centrifuge and the filtrates were injected into HPLC to determine equilibrium solubility of the API in each solvent system.

[6] = Saturated solubility at 80° C., visually estimated; assay type: physicochemical; details: Capmul MCM
[7] = Amorphous form: mDSC glass transition and TGA; assay type: physicochemical; details: preliminary TGA data
Method: To assess the feasibility of solid dispersion approach in formulation development, the glass transition temperature of the material was determined by modulated differential scanning calorimetry (mDSC). […] Therefore, as preparing an in-situ amorphous material in DSC pan, the end temperature should not ramp beyond 260° C. The amorphous samples were generated by heating the raw APIs from 25 to 250° C., followed by a rapid cooling to −60° C. The glass transition temperature (Tg) was measured by a slow heating of the generated amorphous samples from −60° C. to 250° C. The Tg for in-situ generated amorphous material from C and Form A was 93° C. and 97° C., respectively. The discrepancy in the two Tg values may simply due to the variation of water content in the samples or chemical purity.

[8] = Non-sink dissolution of unmicronized and micronized Form C in SLS in water; assay type: physicochemical; details: aqueous with cosolvent or surfactant or cyclodextrin
Excerpt: The enhancement in dissolution rate from micronized samples was likely due to the increase in surface area after micronization supported by microscopic images and particle sizing.

[9] = treated vs untreated Abcd4/rdh8 double knockout mice

CC(=O)N1CCc2c(C(=O)N3CCC(c4ccc(F)c(F)c4C(F)(F)F)CC3)n[nH]c2C1 [Compound 1, 1-(3-(4-(3,4-difluoro-2-(trifluoromethyl)phenyl)piperidine-1-carbonyl)-1,4,5,7-tetrahydro-6H-pyrazolo[3,4-c]pyridin-6-yl)ethan-1-one]
reduction in bisretinoid accumulation ([1]; bisretinoid A2E in the eye, ABCA4−/−RDH8−/− mice treated with Compound 1, p=0.003, unpaired t-test): 80% | outer nuclear layer (ONL) thickness ([1]; diseased group treated with Compound 1 vs diseased group): preserved | levels of A2E in the retina [1, 9]: significantly lower | levels of RBP4 in serum [1, 9]: lower | Tm/Tg ratio ([2]; indicative of moderate physical stability): 1.37 | crystallization temperature (Tc) ([2]; melt-quenched Compound 1): about 136 °C | glass transition temperature (Tg) ([2]; melt-quenched Compound 1): about 93 °C | Tg [3]: 93.4 °C | Tg Onset [3]: 89.4 °C | solubility ([4]; 2-propanol, organic solvent or mixture): 4000 µg/mL (≈ 8760 µM) | solubility ([4]; acetone, organic solvent or mixture): 2000 µg/mL (≈ 4380 µM) | solubility ([4]; acetonitrile, organic solvent or mixture): < 1000 µg/mL | solubility ([4]; dichloromethane, organic solvent or mixture): 2000 µg/mL (≈ 4380 µM) | solubility ([4]; dimethylformamide, organic solvent or mixture): 15000 µg/mL (≈ 32900 µM) | solubility ([4]; ethanol (absolute), organic solvent or mixture): 6000 µg/mL (≈ 13100 µM) | solubility ([4]; ethyl acetate, organic solvent or mixture): 1000 µg/mL (≈ 2190 µM) | solubility ([4]; ethyl ether, organic solvent or mixture): < 1000 µg/mL | solubility ([4]; methanol, organic solvent or mixture): 6000 µg/mL (≈ 13100 µM) | solubility ([4]; tetrahydrofuran, organic solvent or mixture): 6000 µg/mL (≈ 13100 µM) | solubility ([4]; water): < 1000 µg/mL | solubility ([5]; Canola Oil, oil or lipid, Canola Oil, read-out: Solubility by HPLC): 31 µg/mL (≈ 67.9 µM) | solubility ([5]; Capmul MCM, EP, oil or lipid, Capmul MCM, EP, read-out: Solubility by HPLC): 3900 µg/mL (≈ 8540 µM) | solubility ([5]; Capmul MCM, NF, oil or lipid, Capmul MCM, NF, read-out: Solubility by HPLC): 4400 µg/mL (≈ 9640 µM) | solubility ([5]; Captex 300, EP/NF, oil or lipid, Captex 300, EP/NF, read-out: Solubility by HPLC): 64 µg/mL (≈ 140 µM) | solubility ([5]; Captex 355, EP/NF, oil or lipid, Captex 355, EP/NF, read-out: Solubility by HPLC): 49 µg/mL (≈ 107 µM) | solubility ([5]; Castor Oil, oil or lipid, Castor Oil, read-out: Solubility by HPLC): 990 µg/mL (≈ 2170 µM) | solubility ([5]; Corn Oil, oil or lipid, Corn Oil, read-out: Solubility by HPLC): 31 µg/mL (≈ 67.9 µM) | solubility ([5]; FaSSIF, pH 4.96, fassif, FaSSIF, Final pH: 4.96, read-out: Solubility by HPLC): 39 µg/mL (≈ 85.4 µM) | solubility ([5]; FaSSIF, pH 4.99, fassif, FaSSIF, Final pH: 4.99, read-out: Solubility by HPLC): 47 µg/mL (≈ 103 µM) | solubility ([5]; FaSSIF, pH 6.77, fassif, FaSSIF, Final pH: 6.77, read-out: Solubility by HPLC): 5.1 µg/mL (≈ 11.2 µM) | solubility ([5]; FaSSIF, pH 6.78, fassif, FaSSIF, Final pH: 6.78, read-out: Solubility by HPLC): 3.2 µg/mL (≈ 7.01 µM) | solubility ([5]; Gelucire 44/14 1 mg/mL (500× cmc), aqueous with cosolvent or surfactant or cyclodextrin, Gelucire 44/14, 1 mg/mL (500× cmc), read-out: Solubility by HPLC): 0.8 µg/mL (≈ 1.75 µM) | solubility ([5]; Kolliphor HS-15, 35 °C, organic solvent or mixture, Kolliphor HS-15, Stirred at 35° C., read-out: Solubility by HPLC): 2800 µg/mL (≈ 6130 µM) | solubility ([5]; Kolliphor P188 0.4 mM (3.2× cmc), aqueous with cosolvent or surfactant or cyclodextrin, Kolliphor P188, 0.4 mM (3.2× cmc), read-out: Solubility by HPLC): 1.6 µg/mL (≈ 3.51 µM) | solubility ([5]; Kolliphor P188 4 mM (32× cmc), aqueous with cosolvent or surfactant or cyclodextrin, Kolliphor P188, 4 mM (32× cmc), read-out: Solubility by HPLC): 3.1 µg/mL (≈ 6.79 µM) | solubility ([5]; Labrafil M1944CS, oil or lipid, Labrafil M1944CS, read-out: Solubility by HPLC): 280 µg/mL (≈ 613 µM) | solubility ([5]; Labrasol, oil or lipid, Labrasol, read-out: Solubility by HPLC): 1700 µg/mL (≈ 3720 µM) | solubility ([5]; Lecithin 61 mg/mL (100× cmc), aqueous with cosolvent or surfactant or cyclodextrin, Lecithin, 61 mg/mL (100× cmc), read-out: Solubility by HPLC): 53 µg/mL (≈ 116 µM) | solubility ([5]; Miglyol 810, oil or lipid, Miglyol 810, read-out: Solubility by HPLC): 53 µg/mL (≈ 116 µM) | solubility ([5]; Miglyol 812, oil or lipid, Miglyol 812, read-out: Solubility by HPLC): 52 µg/mL (≈ 114 µM) | solubility ([5]; Oleic Acid, oil or lipid, Oleic Acid, read-out: Solubility by HPLC): 390 µg/mL (≈ 854 µM) | solubility ([5]; PEG 400, organic solvent or mixture, PEG 400, read-out: Solubility by HPLC): 2000 µg/mL (≈ 4380 µM) | solubility ([5]; Peceol, oil or lipid, Peceol, read-out: Solubility by HPLC): 1300 µg/mL (≈ 2850 µM) | solubility ([5]; Plurol Oleique CC 497, oil or lipid, Plurol Oleique CC 497, read-out: Solubility by HPLC): 1200 µg/mL (≈ 2630 µM) | solubility ([5]; Sodium Lauryl Sulfate 8.2 mM (cmc), aqueous with cosolvent or surfactant or cyclodextrin, Sodium Lauryl Sulfate, 8.2 mM (cmc), read-out: Solubility by HPLC): 150 µg/mL (≈ 329 µM) | solubility ([5]; Sodium Lauryl Sulfate 41 mM (5× cmc), aqueous with cosolvent or surfactant or cyclodextrin, Sodium Lauryl Sulfate, 41 mM (5× cmc), read-out: Solubility by HPLC): 1600 µg/mL (≈ 3510 µM) | solubility ([5]; Sodium Lauryl Sulfate 82 mM (10× cmc), aqueous with cosolvent or surfactant or cyclodextrin, Sodium Lauryl Sulfate, 82 mM (10× cmc), read-out: Solubility by HPLC): 2400 µg/mL (≈ 5260 µM) | Solubility by HPLC ([5]; Sodium Lauryl Sulfate, 0.82M (100× cmc)): 17000 µg/mL and 19000 µg/mL | solubility ([5]; Soybean Oil, oil or lipid, Soybean Oil, read-out: Solubility by HPLC): 30 µg/mL (≈ 65.7 µM) | solubility ([5]; Transcutol HP, organic solvent or mixture, Transcutol HP, read-out: Solubility by HPLC): 4700 µg/mL (≈ 10300 µM) | solubility ([5]; Triacetic, organic solvent or mixture, Triacetic, read-out: Solubility by HPLC): 430 µg/mL (≈ 942 µM) | solubility ([5]; Tween 80, 1.2 mM (100× CMC), aqueous with cosolvent or surfactant or cyclodextrin, Tween 80, 1.2 mM (100× cmc), read-out: Solubility by HPLC): 560 µg/mL (≈ 1230 µM) | solubility ([5]; Vitamin E TPGS 0.2 wt % (10× cmc), aqueous with cosolvent or surfactant or cyclodextrin, Vitamin E TPGS, 0.2 wt % (10× cmc), read-out: Solubility by HPLC): 20 µg/mL (≈ 43.8 µM) | solubility ([5]; Vitamin E TPGS 2 wt % (100× cmc), aqueous with cosolvent or surfactant or cyclodextrin, Vitamin E TPGS, 2 wt % (100× cmc), read-out: Solubility by HPLC): 40 µg/mL (≈ 87.6 µM) | solubility ([5]; Water, pH 8.99, water, Water, Final pH: 8.99, read-out: Solubility by HPLC): 1 µg/mL (≈ 2.19 µM) | solubility ([5]; ethanol, organic solvent or mixture, Ethanol, read-out: Solubility by HPLC): 3100 µg/mL (≈ 6790 µM) | solubility ([5]; organic solvent or mixture, EtOH, PEG 400, Propylene glycol, Capmul MCM NF, Kolliphor EL, Capmul MCM EP, Plurol Oleique CC 497, Peceol, Labrasol, SLS at 5× and 10×CMC, Transcutol HP, read-out: solubility of the API): 1000 to 5000 µg/mL (≈ 2190 to 11000 µM) | solubility ([5]; pH 1.0 buffer, pH 1, simulated gastric fluid, pH 1.0 buffer, Final pH: 0.89, read-out: Solubility by HPLC): 1.2 µg/mL (≈ 2.63 µM) | solubility ([5]; pH 4.5 buffer, pH 4.5, aqueous buffer, pH 4.5 buffer, Final pH: 4.80, read-out: Solubility by HPLC): 1.1 µg/mL (≈ 2.41 µM) | solubility ([5]; pH 6.8 buffer, pH 6.8, aqueous buffer, pH 6.8 buffer, Final pH: 6.50, read-out: Solubility by HPLC): 0.8 µg/mL (≈ 1.75 µM) | solubility ([5]; propylene glycol, organic solvent or mixture, Propylene Glycol, read-out: Solubility by HPLC): 2600 µg/mL (≈ 5700 µM) | solubility ([5]; sodium lauryl sulfate solution, 0.82 M (100× CMC), aqueous with cosolvent or surfactant or cyclodextrin, Sodium Lauryl Sulfate, 0.82M (100× cmc), read-out: Solubility by HPLC): > 10000 µg/mL | solubility ([5]; sulfobutylether β-cyclodextrin, 40 wt %, aqueous with cosolvent or surfactant or cyclodextrin, Sulfobutylether β-CD, 40 wt %, read-out: Solubility by HPLC): 750 µg/mL (≈ 1640 µM) | solubility ([6]; 80 °C, oil or lipid, thermodynamic from solid): 16000 µg/mL (≈ 35100 µM) | saturated solubility ([6]; listed as API): 20000 µg/mL | temperature at which continuous weight loss due to decomposition started (TGA) [7]: 260 °C | solubility ([8]; 0.366% SLS in water, read-out: nominal solubility of the API): ~460 µg/mL (≈ 1010 µM) | solubility ([8]; 0.36% SLS in water, calculated from SLS concentration vs solubility profile, read-out: solubility of the API): 445 µg/mL (≈ 974 µM)
